{"source": "paper PMC4920643", "about": "(Neuropharmacology, 2016)", "key": {"[1]": {"system": "5-HT3 receptors", "conditions": "cited from earlier work"}, "[2]": {"target": "T1, 5-HT3A receptors (Homo sapiens, UniProt P46098)", "T1 construct": "expressed in transfected cells; host or cells: Xenopus oocytes injected with cRNA (pGEMHE)", "T1 sequence (P46098 24-478)": "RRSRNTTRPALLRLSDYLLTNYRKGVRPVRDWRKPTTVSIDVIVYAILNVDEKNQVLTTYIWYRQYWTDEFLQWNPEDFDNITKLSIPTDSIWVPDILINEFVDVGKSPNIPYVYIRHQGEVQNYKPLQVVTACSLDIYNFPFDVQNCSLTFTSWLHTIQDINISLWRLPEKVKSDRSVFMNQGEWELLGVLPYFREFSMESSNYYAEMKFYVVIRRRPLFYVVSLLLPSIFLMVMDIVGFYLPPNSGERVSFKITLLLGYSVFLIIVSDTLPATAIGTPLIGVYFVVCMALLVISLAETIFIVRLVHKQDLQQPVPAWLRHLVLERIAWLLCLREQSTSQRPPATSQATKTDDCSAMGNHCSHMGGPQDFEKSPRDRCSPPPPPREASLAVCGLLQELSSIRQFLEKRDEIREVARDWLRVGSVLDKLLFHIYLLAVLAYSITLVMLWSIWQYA", "type": "cell-based"}, "[3]": {"system": "5-HT3 receptor", "conditions": "cited from earlier work"}, "[4]": {"target": "5-HT3 receptor", "conditions": "cited from earlier work", "remark": "listed apart in the source"}, "[5]": {"target": "nicotinic acetylcholine receptors", "conditions": "read-out: IC50, block of nicotinic acetylcholine receptors; cited from earlier work"}, "[6]": {"system": "α7 nACh receptors", "conditions": "cited from earlier work"}}, "data": [{"smiles": "CN1C2CCC1CC(OC(=O)c1ccccc1)C2", "note": "(stereo not shown) [tropane benzoate]", "values": [{"measurement": "affinity at 5-HT3 receptors", "setting": "[1]", "result": 63, "unit": "nM"}]}, {"smiles": "NCCc1c[nH]c2ccc(O)cc12", "note": "[5-HT]", "values": [{"measurement": "Hill slope of agonist concentration-response curve", "setting": "[2]", "result": "2.06 ± 0.14"}, {"measurement": "desensitisation time constant τ of inward current", "setting": "[2]", "result": "42 ± 5", "unit": "s"}]}, {"smiles": "CN1[C@@H]2C[C@@H](OC(=O)c3c[nH]c4ccccc34)C[C@H]1[C@@H]1O[C@@H]12", "note": "[SDZ-ICT 322]", "values": [{"measurement": "pA2", "setting": "[3]", "result": 10.6}, {"measurement": "pKd", "setting": "[4]", "result": 9.2}]}, {"smiles": "CN1[C@@H]2C[C@@H](OC(=O)[C@H](CO)c3ccccc3)C[C@H]1[C@@H]1O[C@@H]12", "note": "[scopolamine]", "values": [{"measurement": "IC50", "setting": "[5]", "result": 928, "unit": "µM"}, {"measurement": "expression of α7 nACh receptors", "setting": "[6]", "result": "increases the expression"}]}]}
